The subject of assay [1] is Enterococcus foecalis MGH2. Kind of assay: Antibacterial activity, microtitration dilution method. It is filed as cell-based. The conditions noted are these: read-out: Antibacterial Activity, minimum inhibitory concentration (MIC). The text has this: (§1) The compounds of the invention display antibacterial activity when tested by the microtitration dilution method as described in Heifetz, et al., Antimicr. Agents. & Chemoth. 6:124 (1974) which is incorporated herein by reference.
(§2) By use of the above referenced method, the following minimum inhibitory concentration values (MICs in μg/mL) were obtained for representative compounds of the invention vs. clinically relevant gram positive pathogens which have become highly resistant to conventional therapy in recent years.

The subject of assay [2] is Staphylococcus aureus UC-76. The assay is described as above. It is filed as cell-based. The conditions noted are these: UC76, read-out: Antibacterial Activity, minimum inhibitory concentration (MIC).
Text: as §1, §2

For assay [3], the system named is Streptococcus pyogenes C203. The description is as above. It is filed as cell-based. The settings on record: read-out: Antibacterial Activity, minimum inhibitory concentration (MIC).
Text: as §1, §2

For assay [4], the system named is Streptococcus pneumonia 5V-1. The assay is described as above. It is filed as cell-based. The conditions noted are these: Streptococcus pneumoniae, 5V1, read-out: Antibacterial Activity, minimum inhibitory concentration (MIC).
Text: as §1, §2

Assay [5] concerns Staphylococcus aureus H228. The description is as above. The conditions noted are these: read-out: Antibacterial Activity, minimum inhibitory concentration (MIC). It is filed as cell-based.
Text: as §1, §2

Assay [6] addresses T1, HIV-I Protease (Human immunodeficiency virus type 1 group M subtype B, UniProt P04585).
T1 construct: HIV-I Protease: The enzyme is obtained from Bachem Bioscience Inc; purchased Bachem Bioscience Inc
The assay can be described thus: HIV Protease Inhibition (undecapeptide substrate hydrolysis, HPLC). It is filed as biochemical. The settings on record: averaged; substrate 40 μM, 37° C., pH 4.7 DTT buffer, 5 minutes; read-out: 50% Inhibition Concentration (Averaged). Here is the method:
DTT Buffer: 1.0 mM dithiothreitol (DTT) was prepared fresh daily in 0.1% polyethylene glycol (mw 8000) 80 mM NaOAc, 160 mM NaCl, 1.0 mM EDTA, and brought to pH 4.7 with HCl.
HIV-I Protease: The enzyme is obtained from Bachem Bioscience Inc. The undiluted enzyme is thawed from -80° C. and diluted 50-fold with DTT buffer. The solution is always kept at 0° C. on ice water and used in the experiment within 20 minutes after thawing.
Enzyme Substrate: Substrate III from Bachem Bioscience Inc. is the undecapeptide H-His-Lys-Ala-Arg-Val-Leu-p-Nitrophenylalanine-Glu-Ala-Norleucine-Ser-NH2 (>97% purity). A 200 μM stock solution in DTT buffer is prepared and stored on ice. Substrate solution is prepared fresh daily.
Test Compound: 10 mM inhibitor (I) in dimethyl sulfoxide (DMSO) is diluted to 200 μM with DTT buffer. From the 200 μM stock solution is made a 10 μM stock solution with 2% DMSO in DTT buffer. The two inhibitor solutions are used to make final [I]=100, 50, 20, 10, 5, 2, 1, 0.5 and 0 μM with 2% DMSO in DTT buffer in each reaction well (total inhibitor volume of 50 μl).
To each reaction well is added 20 μl of substrate (final concentration of 40 μM), 50 μl of inhibitor (at a concentration such that final dilution will produce the test concentration) and 20 μl of DTT buffer. The reaction plate (96 wells) is incubated at 37° C. for at least 5 minutes.
10 μl of the diluted protease is added to the reaction well while the reaction plate is shaking. Once shaken for 10 seconds, the plate is returned to the heating block at 37° C. (Final reaction volume=100 μl.)
The reaction is incubated for 5 minutes at 37° C. The reaction is stopped by placing the reaction plate on the shaker and adding 20 μl of 10% trifluoroacetic acid (TFA) and shaking for 10 seconds. The amount of proteolysis is then determined by separation of noncleaved substrate and two cleaved products with reverse-phase HPLC, while measuring absorbance at 220 nm to determine the relative peak areas of the three components. The relative peak areas are used to calculate % conversion to product as a function of inhibitor concentration. The data is plotted as % Control (the ratio of % conversion in the presence and absence of inhibitor×100) versus inhibitor concentration and fit with the equation Y=100/1+(X/IC50)^A, where IC50 is the inhibitor concentration at 50% inhibition and A is the slope of the inhibition curve.

The test system of assay [7] is HIV. The conditions noted are these: R. Nagorny et al., AIDS 1993; cited from earlier work.

The structures appear in SMILES notation. ≈ marks a conversion by molar mass, not a printed value.

For the molecule `O=c1oc(-c2ccccc2Cl)cc(O)c1SCc1ccccc1` [Example 2, 6-(2-chlorophenyl)-4-hydroxy-3-[(phenylmethyl)thio]-2H-pyran-2-one], the MIC in assay [1] amounted to 25 µg/mL (≈ 72.5 µM); in assay [2], 12.5 µg/mL (≈ 36.3 µM); in assay [3] it was 12.5 µg/mL (≈ 36.3 µM); in assay [4], 12.5 µg/mL (≈ 36.3 µM); in assay [5], 12.5 µg/mL (≈ 36.3 µM).
For the molecule `O=c1oc(-c2ccc(OCc3ccccc3)cc2)cc(O)c1SCCc1ccccc1` [Example 29, 4-Hydroxy-3-[(2-phenylethyl)thio]-6-[4-(phenylmethoxy)phenyl]-2H-pyran-2-one], the MIC in assay [1] turned out to be 50 µg/mL (≈ 116 µM); in assay [2], 25 µg/mL (≈ 58.1 µM); in assay [3], 25 µg/mL (≈ 58.1 µM); in assay [4], 25 µg/mL (≈ 58.1 µM); in assay [5], 25 µg/mL (≈ 58.1 µM).
Turning to `CCC(=O)Oc1cc(-c2ccccc2)oc(=O)c1SCc1ccccc1` [Example 49, 2-Oxo-6-phenyl-3-[ (phenylmethyl)thio]-2H-pyran-4-ylpropanoic acid ester], in assay [6], the IC50 was determined as 1600 nM.
On the same count and under the same terms, to `O=c1oc(-c2ccc(OCCO)cc2)cc(O)c1SCCc1ccccc1` [Example 160, 4-Hydroxy-6-[4-(2-hydroxyethoxy)phenyl]-3-[(2-phenylethyl)thio]-2H-pyran-2-one] belongs 360 nM.
`CC(C)c1ccccc1Sc1c(O)cc(-c2cccc(-c3ccccc3)c2)oc1=O` [Example 167, 6-(1,1'-Biphen-3-yl)-4-hydroxy-3-[(2-isopropylphenyl)thio]-2H-pyran-2-one]: the MIC amounted to 12.5 µg/mL (≈ 30.2 µM) in assay [1]; 6.2 µg/mL (≈ 15 µM) in assay [2]; 6.2 µg/mL (≈ 15 µM) in assay [3]; 6.2 µg/mL (≈ 15 µM) in assay [4]; 6.2 µg/mL (≈ 15 µM) in assay [5].
On to `Cc1cc(C)cc(-c2cc(O)c(Sc3ccccc3C(C)C)c(=O)o2)c1` [Example 169, 6-(3,5-Dimethylphenyl)-4-hydroxy-3-[(2-isopropylphenyl)-thio]-2H-pyran-2-one], for which, in assay [6], the IC50 was 15 nM.
In the case of `CC(C)c1ccccc1Sc1c(O)cc(-c2ccc(OCc3cccnc3)cc2)oc1=O` [Example 172, 4-Hydroxy-3-[(2-isopropylphenyl)thio]-6-[4-(pyridin-3-ylmethoxy)phenyl]-2H-pyran-2-one], the MIC in assay [1] turned out to be 100 µg/mL (≈ 224 µM); in assay [2], 50 µg/mL (≈ 112 µM); in assay [3] it was 50 µg/mL (≈ 112 µM); in assay [4], 50 µg/mL (≈ 112 µM); in assay [5], 50 µg/mL (≈ 112 µM).
With `CC(C)c1ccccc1Sc1c(O)cc(-c2cc(Cl)cc(Cl)c2)oc1=O` [Example 193, 6-(3,5-Dichlorophenyl)-4-hydroxy-3-[(2-isopropylphenyl)thio]-2H-pyran-2-one], the IC50 in assay [6] is 26 nM.
As to `CC(=O)CC(c1ccccc1)c1c(O)c2ccccc2oc1=O` (stereo not drawn) [Warfarin, 3-(α-acetonylbenzyl)-4-hydroxycoumarin], in assay [7], the “inhibition of HIV infection (in words)” value was “inhibiting cell-free and cell-mediated HIV infection”.

The values are drawn from patent US5808062A, “Pyrone derivatives as protease inhibitors and antiviral agents” (Warner-Lambert Company, priority 1994, dated 1998).
